According to ChEMBL document CHEMBL1201862, “PubChem BioAssay data set” (2004):
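Each compound was tested at five concentrations against cells in 96-well plates for 48 hours. At the GI50, growth is halved.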 The source made the active and inactive calls. Cut-off read from the data, not from the text of the source: active = GI50 up to about 1.1 µM and inactive = higher.

Key:
Assay in all cases: DTP human tumour cell line panel, 48 h
Hs-578T = system: Hs-578T
MDA-MB-231 = system: MDA-MB-231
BT-549 = system: BT-549
LXFL 529 = system: LXFL 529
KM-20L2 = system: KM-20L2
SNB-78 = system: SNB-78
RXF 631 = system: RXF 631
DMS-114 = system: DMS-114

SMILES	GI50 (Hs-578T)	GI50 (MDA-MB-231)	GI50 (KM-20L2)	GI50 (SNB-78)	GI50 (DMS-114)	also measured
Cc1ccc(S(=O)(=O)N2CCCN(S(=O)(=O)c3ccc(C)cc3)CC2)cc1	> 100 µM (inactive)	> 100 µM (inactive)	–	–	–	–
COC(=O)C1C(C(=O)OC)N(Cc2ccccc2)C(=O)N1Cc1ccccc1 (centres undefined)	> 100 µM (inactive)	–	–	–	–	GI50 (BT-549): > 100 µM (inactive)
CC(=O)OC1(C#N)CC2OC1C1C2N=NN1C(=O)OC(C)(C)C (centres undefined)	–	–	55.8 µM (inactive)	26.9 µM (inactive)	23.2 µM (inactive)	GI50 (LXFL 529): 33 µM (inactive); GI50 (RXF 631): 50.6 µM (inactive)
CCC(C(=O)c1ccc(OC)c(OC)c1)N(C(=O)C(F)(F)F)C(C)c1ccccc1 (centres undefined)	–	> 100 µM (inactive)	–	–	–	–
Cc1nc2[nH]ncn2c(=O)c1CCCl	> 10 µM (inactive)	> 10 µM (inactive)	–	–	–	–
COc1ccc(C2COc3c(ccc(O)c3C)C2)cc1OC (centres undefined)	–	–	91.6 µM (inactive)	157 µM (inactive)	24.4 µM (inactive)	–
CC(C)(O)[C@H](CCO)O[Si](c1ccccc1)(c1ccccc1)C(C)(C)C	–	–	11.2 µM (inactive)	15 µM (inactive)	–	GI50 (LXFL 529): 11.6 µM (inactive)
COc1ccc(/C(Cl)=C(\C=O)c2ccccc2)cc1OC	–	–	44 µM (inactive)	16.7 µM (inactive)	13.1 µM (inactive)	GI50 (LXFL 529): 12.4 µM (inactive)
CC(=O)OCC1OC(NC(=O)N(CCCl)N=O)C(OC(C)=O)C(OC(C)=O)C1OC(C)=O (centres undefined)	–	–	> 100 µM (inactive)	> 100 µM (inactive)	> 100 µM (inactive)	–
COc1ccc(-c2oc3cc(OC(C)=O)cc(OC(C)=O)c3c(=O)c2OC)cc1	–	22 µM (inactive)	–	–	–	–
NC(CCCCCP(=O)(O)O)C(=O)O (centres undefined) [AP-7]	> 100 µM (inactive)	> 100 µM (inactive)	–	–	–	GI50 (BT-549): > 100 µM (inactive)
